Results reported in US20260259169A1, “BETA-LACTAMASE SUBSTRATE COMPOUNDS AND ELECTROCHEMICAL DETECTION METHODS USING THEM” (priority 2023, published 2026).

Tests used:
[1] = test system: bacteria strains that produce NDM; assay: Amperometric detection in blood culture; assay type: cell-based; details: CF3 6.0 mM, HMRZ-86 1.2 mM
Description: (§1) The possibility of the beta-lactamase substrate compounds to detect bacteria strains producing different beta-lactamases was tested for the reference HMRZ-86 of example 1 (at 1.2 mM) and the beta-lactamase substrate compound with R being 2-nitro-4-cyano of Example 1 (at 2.4 mM). […] Consequently, amperometric voltammetry of the negative control with ATCC should give an oxidation current of 0 nA for the measurement to be valid.
(§2) The beta-lactamase with group β being CF3 (6.0 mM), as well as the reference HMRZ-86 (1.2 mM) were also tested with blood cultures comprising bacteria strains producing the carbapenemase KPC type, the metallo-beta-lactamase VIM type and the metallo-beta-lactamase NDM type, as well as a blood culture comprising no bacteria strains producing beta-lactamases (negative control ATCC).

[2] = test system: bacteria strains that produce VIM type; assay: Amperometric detection in blood culture; assay type: cell-based; details: CF3 6.0 mM, HMRZ-86 1.2 mM
Description: as §1, §2

[3] = NMR stability study in relation to a dimethylformamide (DMF) reference; assay type: physicochemical; details: for degradation: DMF reference
Description: More particularly, when the degradation is determined by means of NMR measurements, a first sample comprising the beta-lactamase substrate compound according to the present disclosure and a second sample comprising the reference, e.g. DMF, are heated or cooled to a predefined temperature, after which the NMR measurement is performed on both samples (measurement at time=0). The same measurement is repeated on the samples after a predefined time (time=x), while their temperature is kept constant at the predefined temperature from time=0 to time=x. The difference of the integration of NMR measurement signals of both samples is determined by comparing between time=0 and time=x, thereby allowing to define the degree (percentage) of degradation of the beta-lactamase substrate compound at time=x.
The stability of the beta-lactamase substrate compounds over time at different temperatures was tested the reference HMRZ-86 of example 1 (at 1.2 mM) and the beta-lactamase substrate compound with R being 2-nitro-4-cyano of Example 1 (at 2.4 mM).
The stability was tested by a NMR stability study. The degradation was measured by measuring the evolution of the integration of NMR measurement signals of the molecule in relation to a dimethylformamide (DMF) reference. The stability of the beta-lactamase substrate compound is expressed by the percentage of degradation in function of time.
The stability of all 3 beta-lactamase substrate compounds (R being 4-cyanophenyl, group β being H, CH3 and CF3, respectively), as well as the beta-lactamase having the same group R and a group β according to formula II was tested at 20° C. in DMF as reference.

CTX-M-2 = CTX-M-2 (Salmonella typhimurium, UniProt P74841); assay: Reactivity with recombinant enzyme, amperometric; assay type: biochemical; details: class A ESBL, protein; CF3 compound 2.4 mM, HMRZ-86 1.2 mM; 10 minutes at 37° C.
CTX-M-8 = assay: Reactivity with recombinant enzyme, amperometric; assay type: biochemical; details: class A ESBL, protein; CF3 compound 2.4 mM, HMRZ-86 1.2 mM; 10 minutes at 37° C.
CTX-M-15 = CTX-M-15 (Escherichia coli, UniProt Q9EXV5); assay: Reactivity with recombinant enzyme, amperometric; assay type: biochemical; details: class A ESBL, protein; CF3 compound 2.4 mM, HMRZ-86 1.2 mM; 10 minutes at 37° C.
KPC-31 = KPC-31 (Klebsiella pneumoniae, UniProt Q9F663, D178Y/H272Y); assay: Reactivity with recombinant enzyme, amperometric; assay type: biochemical; details: class A carbapenemase, protein, CF3 compound 2.4 mM, HMRZ-86 1.2 mM, 10 minutes at 37° C.
IMP-1 = IMP-1 (Serratia marcescens, UniProt P52699); assay: Reactivity with recombinant enzyme, amperometric; assay type: biochemical; details: class B metallo-beta-lactamase, protein; CF3 compound 2.4 mM, HMRZ-86 1.2 mM; 10 minutes at 37° C.
IMP-3 = assay: Reactivity with recombinant enzyme, amperometric; assay type: biochemical; details: class B metallo-beta-lactamase, protein; CF3 compound 2.4 mM, HMRZ-86 1.2 mM; 10 minutes at 37° C.
IMP-31 = assay: Reactivity with recombinant enzyme, amperometric; assay type: biochemical; details: class B metallo-beta-lactamase, protein; CF3 compound 2.4 mM, HMRZ-86 1.2 mM; 10 minutes at 37° C.
IMP-61 = assay: Reactivity with recombinant enzyme, amperometric; assay type: biochemical; details: class B metallo-beta-lactamase, protein; CF3 compound 2.4 mM, HMRZ-86 1.2 mM; 10 minutes at 37° C.
VIM-11 = assay: Reactivity with recombinant enzyme, amperometric; assay type: biochemical; details: class B metallo-beta-lactamase, protein; CF3 compound 2.4 mM, HMRZ-86 1.2 mM; 10 minutes at 37° C.
VIM-13 = assay: Reactivity with recombinant enzyme, amperometric; assay type: biochemical; details: class B metallo-beta-lactamase, protein; CF3 compound 2.4 mM, HMRZ-86 1.2 mM; 10 minutes at 37° C.
OXA-23 = OXA-23 (Acinetobacter baumannii, UniProt Q9L4P2); assay: Reactivity with recombinant enzyme, amperometric; assay type: biochemical; details: class D carbapenemase, protein; CF3 compound 2.4 mM, HMRZ-86 1.2 mM; 10 minutes at 37° C.
OXA-48 = assay: Reactivity with recombinant enzyme, amperometric; assay type: biochemical; details: class D carbapenemase, protein; CF3 compound 2.4 mM, HMRZ-86 1.2 mM; 10 minutes at 37° C.
OXA-143 = assay: Reactivity with recombinant enzyme, amperometric; assay type: biochemical; details: class D carbapenemase, protein; CF3 compound 2.4 mM, HMRZ-86 1.2 mM; 10 minutes at 37° C.
OXA-213 = assay: Reactivity with recombinant enzyme, amperometric; assay type: biochemical; details: class D carbapenemase, protein; CF3 compound 2.4 mM, HMRZ-86 1.2 mM; 10 minutes at 37° C.
OXA-163 = details: class D carbapenemase, protein; CF3 compound 2.4 mM, HMRZ-86 1.2 mM; 10 minutes at 37° C.

CC(C)(ON=C(C(=O)N[C@@H]1C(=O)N2C(C(=O)O)=C(C=Cc3ccc([N+](=O)[O-])cc3[N+](=O)[O-])CS[C@H]12)c1csc(N)n1)C(=O)O.O=C(O)C(F)(F)F [HMRZ-86, reference compound]
detection (oxidation current) [1]: do not detect
detection (oxidation current) [2]: capable of detecting
degradation ([3]; 4° C., after 1 day): over 50%
degradation ([3]; 20° C., after 1 week): ~60%
degradation ([3]; 20° C., after 18 weeks): over 90%
degradation ([3]; 20° C., after 1 day): ~60%
degradation over time ([3]; temperatures between 4° C. and 20° C.): significant degradation over time
reactivity (detection) (CTX-M-2): Detected
reactivity (detection) (CTX-M-8): Detected
reactivity (detection) (CTX-M-15): Detected
reactivity (detection) (KPC-31): Detected
reactivity (detection) (IMP-1): Detected
reactivity (detection) (IMP-3): Detected
reactivity (detection) (IMP-31): Detected
reactivity (detection) (IMP-61): Detected
reactivity (detection) (VIM-11): Detected
reactivity (detection) (VIM-13): Detected
reactivity (detection) (OXA-23): Not detected
reactivity (detection) (OXA-48): Detected
reactivity (detection) (OXA-143): Detected
reactivity (detection) (OXA-213): Not detected
reactivity (detection) (OXA-163): Detected

N#Cc1ccc(C=CC2=C(C(=O)O)N3C(=O)C(NC(=O)C(F)(F)F)C3SC2)cc1 (centres unmarked) [CF3]
detection (oxidation current) [1]: do not detect
detection (oxidation current) [2]: capable of detecting
time of first signs of degradation [3]: 1 weeks
reactivity (detection) (CTX-M-2): Detected
reactivity (detection) (CTX-M-8): Detected
reactivity (detection) (CTX-M-15): Detected
reactivity (detection) (KPC-31; listed as CF3/4-cyanophenyl): not detected
reactivity (detection) (KPC-31; listed as CF3/4-cyanostyryl): Not detected
reactivity (detection) (IMP-1): Detected
reactivity (detection) (IMP-3): Detected
reactivity (detection) (IMP-31): Detected
reactivity (detection) (IMP-61): Detected
reactivity (detection) (VIM-11): Detected
reactivity (detection) (VIM-13): Detected
reactivity (detection) (OXA-23): Detected
reactivity (detection) (OXA-48): Detected
reactivity (detection) (OXA-143): Detected
reactivity (detection) (OXA-213): Detected
reactivity (detection) (OXA-163): Detected
